How the values were obtained:
[1] = tested on: antibodies in sera from SARS patients (sera 1a, 1b, 2, 6, 37, 62, London, SARS-yellow, SARS-green); type: binding, human; parameters: Binding of serum 6 to linear peptides of protein X1 of SARS-CoV Urbani / Binding of serum 37 to linear peptides of protein X1 of SARS-CoV Urbani / Binding of serum 6 to looped/cyclic peptide (PEPSCAN-ELISA) / Binding of serum 37 to looped/cyclic peptide (PEPSCAN-ELISA) / Binding of serum 37 to looped/cyclic peptides of protein X1 of SARS-CoV Urbani / Binding of serum 6 to linear peptides of protein X2 / Binding of serum 37 to linear peptides of protein X2 / Binding of serum 37 to looped/cyclic peptides of protein X2 of SARS-CoV Urbani / Binding of serum 6 to linear peptides of protein M of SARS-CoV Urbani / Binding of serum 37 to linear peptides of protein M of SARS-CoV Urbani / Binding of serum 6 to looped/cyclic peptides of protein M of SARS-CoV Urbani / Binding of serum 37 to looped/cyclic peptides of protein M of SARS-CoV Urbani / Binding of serum 6 to linear peptides of protein X3 of SARS-CoV Urbani / Binding of serum 37 to linear peptides of protein X3 of SARS-CoV Urbani / Binding of serum 37 to looped/cyclic peptides of protein X3 of SARS-CoV Urbani / Binding of serum 6 to linear peptides of protein X4 of SARS-CoV Urbani / Binding of serum 37 to linear peptides of protein X4 of SARS-CoV Urbani / Binding of serum 37 to looped/cyclic peptides of protein X4 of SARS-CoV Urbani / Binding of serum 6 to linear peptides of protein X5 of SARS-CoV Urbani / Binding of serum 37 to linear peptides of protein X5 of SARS-CoV Urbani / Binding of serum 37 to looped/cyclic peptides of protein X5 of SARS-CoV Urbani / Binding of serum 6 to linear peptides of protein N of SARS-CoV Urbani / Binding of serum 37 to linear peptides of protein N of SARS-CoV Urbani / Binding of serum 6 to linear peptide (PEPSCAN-ELISA) / Binding of serum 1a to looped/cyclic peptides of protein N of SARS-CoV Urbani / Binding of serum 1b to looped/cyclic peptides of protein N of SARS-CoV Urbani / Binding of serum 2 to looped/cyclic peptides of protein N of SARS-CoV Urbani / Binding of serum 6 to looped/cyclic peptides of protein N of SARS-CoV Urbani / Binding of serum 37 to looped/cyclic peptides of protein N of SARS-CoV Urbani / Binding of serum 62 to looped/cyclic peptides of protein N of SARS-CoV Urbani / Binding of serum London to looped/cyclic peptides of protein N of SARS-CoV Urbani / Binding of serum SARS-green to looped/cyclic peptides of protein N of SARS-CoV Urbani: unit not given here
[2] = tested on: control sera (pooled serum of ten healthy LUMC hospital workers; commercial negative donor pooled serum from the Dutch bloodbank); type: binding, human; parameters: Binding of Control serum LUMC to linear peptides / Binding of Control serum Blood-bank to linear peptides / Binding of Control serum LUMC to looped peptides / Binding of Control Serum Blood-Bank to Looped peptides / Binding of Control serum LUMC to linear peptides of the protein M of SARS-CoV Urbani / Binding of Control serum Blood-bank to linear peptides of the protein M of SARS-CoV Urbani / Binding of Control serum LUMC to looped peptides of the protein M of SARS-CoV Urbani / Binding of Control Serum Blood-Bank to Looped peptides of the protein M of SARS-CoV Urbani: unit not given here
[3] = tested on: rabbit serum obtained by immunizing a rabbit with the SARS-CoV strain Frankfurt 1; type: binding; parameters: Binding of a rabbit serum to linear peptides / Binding of a rabbit serum to looped peptides / Rabbit serum linear peptides / Rabbit serum looped peptides / Binding of a rabbit serum to linear peptides of protein N of SARS-CoV Urbani (Rabbit serum linear peptides) / Binding of a rabbit serum to looped/cyclic peptides of protein N of SARS-CoV Urbani (Rabbit serum looped peptides): unit not given here

Sequence	Binding of serum 1a to linear peptides of protein M of SARS-CoV Urbani [1]	Binding of serum 1b to linear peptides of protein M of SARS-CoV Urbani [1]	Binding of serum 2 to linear peptides of protein M of SARS-CoV Urbani [1]	Binding of serum 6 to linear peptides of protein M of SARS-CoV Urbani [1]	Binding of serum 37 to linear peptides of protein M of SARS-CoV Urbani [1]	Binding of serum 62 to linear peptides of protein M of SARS-CoV Urbani [1]	Binding of serum London to linear peptides of protein M of SARS-CoV Urbani [1]	Binding of serum SARS-green to linear peptides of protein M of SARS-CoV Urbani [1]	Binding of serum SARS-yellow to linear peptides of protein M of SARS-CoV Urbani [1]	Recognition of the peptide by sera of SARS-CoV infected individuals, and form (linear, looped/cyclic) in which it is recognized [1]	Binding of Control Serum Blood-Bank to Looped peptides of the protein M of SARS-CoV Urbani [2]	Binding of Control serum Blood-bank to linear peptides of the protein M of SARS-CoV Urbani [2]	Binding of Control serum LUMC to linear peptides of the protein M of SARS-CoV Urbani [2]	Binding of Control serum LUMC to looped peptides of the protein M of SARS-CoV Urbani [2]	Rabbit serum linear peptides [3]	Rabbit serum looped peptides [3]	Binding of Control Serum Blood-Bank to Looped peptides [2]	Binding of Control serum Blood-bank to linear peptides [2]	Binding of Control serum LUMC to linear peptides [2]	Binding of Control serum LUMC to looped peptides [2]	also measured
RFLYIIKLVFLWLLW	0.7	0.7	0.6	0.8	0.4	0.4	0.6	0.6	0.3	recognized in looped/cyclic form	0.7	0.7	0.8	0.8	0.2	0.3					
RHTYQLRARSVSPKL																	0.6	0.8	0.7	0.7	Binding of serum 1a to linear peptides of protein X4 of SARS-CoV Urbani [1]: 0.8; Binding of serum 1a to looped/cyclic peptides of protein X4 of SARS-CoV Urbani [1]: 0.8; Binding of serum 1b to linear peptides of protein X4 of SARS-CoV Urbani [1]: 0.6; Binding of serum 1b to looped/cyclic peptides of protein X4 of SARS-CoV Urbani [1]: 0.5; Binding of serum 2 to linear peptides of protein X4 of SARS-CoV Urbani [1]: 0.6; Binding of serum 2 to looped/cyclic peptides of protein X4 of SARS-CoV Urbani [1]: 0.7; Binding of serum 6 to linear peptides of protein X4 of SARS-CoV Urbani [1]: 1.1; Binding of serum 6 to looped/cyclic peptides of protein X4 of SARS-CoV Urbani [1]: 0.8; Binding of serum 37 to linear peptides of protein X4 of SARS-CoV Urbani [1]: 0.9; Binding of serum 37 to looped/cyclic peptides of protein X4 of SARS-CoV Urbani [1]: 0.7; Binding of serum 62 to linear peptides of protein X4 of SARS-CoV Urbani [1]: 0.8; Binding of serum 62 to looped/cyclic peptides of protein X4 of SARS-CoV Urbani [1]: 0.6; Binding of serum London to linear peptides of protein X4 of SARS-CoV Urbani [1]: 0.8; Binding of serum London to looped/cyclic peptides of protein X4 of SARS-CoV Urbani [1]: 0.3; Binding of serum SARS-green to linear peptides of protein X4 of SARS-CoV Urbani [1]: 0.7; Binding of serum SARS-green to looped/cyclic peptides of protein X4 of SARS-CoV Urbani [1]: 0.4; Binding of serum SARS-yellow to linear peptides of protein X4 of SARS-CoV Urbani [1]: 0.6; Binding of serum SARS-yellow to looped/cyclic peptides of protein X4 of SARS-CoV Urbani [1]: 0.7; Recognition of the peptide by the rabbit serum [3]: recognized
RIIMRCWLCWKCKSK										recognized in linear form							0.3	0.3	0.2	0.3	Binding of serum 1a to looped/cyclic peptide (PEPSCAN-ELISA) [1]: 0.2; Binding of serum 1b to looped/cyclic peptide (PEPSCAN-ELISA) [1]: 0.2; Binding of serum 2 to looped/cyclic peptide (PEPSCAN-ELISA) [1]: 0.1; Binding of serum 6 to looped/cyclic peptide (PEPSCAN-ELISA) [1]: 0.1; Binding of serum 37 to looped/cyclic peptide (PEPSCAN-ELISA) [1]: 0.2; Binding of serum 62 to looped/cyclic peptide (PEPSCAN-ELISA) [1]: 0.3; Binding of serum London to looped/cyclic peptide (PEPSCAN-ELISA) [1]: 0.1; Binding of serum SARS-green to looped/cyclic peptide (PEPSCAN-ELISA) [1]: 0.1; Binding of serum SARS-yellow to looped/cyclic peptide (PEPSCAN-ELISA) [1]: 0.1; Binding of a rabbit serum to linear peptides [3]: 0.1; Binding of a rabbit serum to looped peptides [3]: 0.3
RINWVTGGIAIAMAC	0.7	0.7	0.6	0.8	0.5	0.5	0.5	0.6	0.3		0.5	0.8	0.8	0.8	0.2	0.4					Binding of serum 1a to looped/cyclic peptides of protein M of SARS-CoV Urbani [1]: 0.7; Binding of serum 1b to looped/cyclic peptides of protein M of SARS-CoV Urbani [1]: 0.2; Binding of serum 2 to looped/cyclic peptides of protein M of SARS-CoV Urbani [1]: 0.6; Binding of serum 6 to looped/cyclic peptides of protein M of SARS-CoV Urbani [1]: 0.4; Binding of serum 37 to looped/cyclic peptides of protein M of SARS-CoV Urbani [1]: 0.7; Binding of serum 62 to looped/cyclic peptides of protein M of SARS-CoV Urbani [1]: 0.7; Binding of serum London to looped/cyclic peptides of protein M of SARS-CoV Urbani [1]: 0.2; Binding of serum SARS-green to looped/cyclic peptides of protein M of SARS-CoV Urbani [1]: 0.3; Binding of serum SARS-yellow to looped/cyclic peptides of protein M of SARS-CoV Urbani [1]: 0.7
RLFARTRSMWSFNPE	0.9	0.9	0.6	0.4	1.0	0.9	0.4	0.5	0.1		0.7	0.8	0.5	0.5	0.4	0.0					Binding of serum 1a to looped/cyclic peptides of protein M of SARS-CoV Urbani [1]: 0.7; Binding of serum 1b to looped/cyclic peptides of protein M of SARS-CoV Urbani [1]: 0.8; Binding of serum 2 to looped/cyclic peptides of protein M of SARS-CoV Urbani [1]: 0.5; Binding of serum 6 to looped/cyclic peptides of protein M of SARS-CoV Urbani [1]: 0.8; Binding of serum 37 to looped/cyclic peptides of protein M of SARS-CoV Urbani [1]: 0.6; Binding of serum 62 to looped/cyclic peptides of protein M of SARS-CoV Urbani [1]: 0.6; Binding of serum London to looped/cyclic peptides of protein M of SARS-CoV Urbani [1]: 0.2; Binding of serum SARS-green to looped/cyclic peptides of protein M of SARS-CoV Urbani [1]: 0.4; Binding of serum SARS-yellow to looped/cyclic peptides of protein M of SARS-CoV Urbani [1]: 0.4

Source: patent US20070128217A1 (priority 2003, published 2007)
